A short description of this data set: UV absorption spectrum (λmax, E1%) of the UV filter compounds. Type of data set: physicochemical. The note with it: for E1%: at main λmax; for E1% (shoulder): at shoulder; for λmax: main maximum.

The structures appear in SMILES notation.

For `COC(=O)/C(=C\C=C\N(C)CCC[Si](C)(O[Si](C)(C)C)O[Si](C)(C)C)S(=O)(=O)c1ccc(C)cc1` [Example 1], for the setting “UV (Ethanol)”, the E1% is 1154, the “E1% (shoulder)” value is given as 773, the λmax worked out at 372 nm and the “λmax (shoulder)” value is given as 356 nm.

As to `C#CCN(C)C=CC=C(C(=O)OCC)S(=O)(=O)c1ccccc1` [ethyl-5-[methyl(prop-2-ynyl)amino]-2-(phenylsulfonyl)penta-2,4-dienoate], where the note is “UV (CH2Cl2)”, the E1% is 1367, the “E1% (shoulder)” value was 1298, the λmax is on record as 366 nm and the “λmax (shoulder)” value was found to be 358 nm.

Regarding `C=CCN(C)C=CC=C(C(=O)OC)S(=O)(=O)c1ccc(C)cc1` [methyl-5-[allyl(methyl)amino]-2-[(4-methylphenyl)sulfonyl]penta-2,4-dienoate], under “UV (CH2Cl2)”, the E1% came to 1346, the “E1% (shoulder)” value is given as 1031, the λmax is 370 nm and the “λmax (shoulder)” value amounted to 356 nm.

These data come from patent US7510703B2, “UV-photoprotecting/sunscreen compositions comprising silane/siloxane derivatives of merocyanine sulfones” (L'Oreal, priority 2004, dated 2009).
